Reference: the NIST ThermoML archive (doi:10.1016/j.tca.2018.08.015)
± gives the expanded uncertainty stated by the source.

Assays:
[1] = for Glass transition temperature: DSC
[2] = Molar enthalpy of transition or fusion; settings: Crystal; DSC
[3] = molar heat capacity at constant pressure; settings: 101.33 kPa, DSC

c1ccc(-c2cccc(-c3ccccc3)c2)cc1 [m-terphenyl]
Settings	Normal melting temperature [°C]	molar heat capacity at constant pressure [J/K/mol]
[1], Crystal, DTA	88 ± 0.5	–
[3], 212 K, Crystal	–	190.6 ± 9.5
[3], 212 K, Glass	–	193.8 ± 9.7
[3], 217 K, Glass	–	200 ± 10
[3], 222 K, Crystal	–	200.7 ± 10
[3], 222 K, Glass	–	206.2 ± 10
[3], 227 K, Glass	–	212.4 ± 11
[3], 232 K, Crystal	–	210.8 ± 10
[3], 232 K, Glass	–	218.6 ± 11
[3], 237 K, Glass	–	224.8 ± 11
[3], 242 K, Crystal	–	220.8 ± 11
[3], 252 K, Crystal	–	230.9 ± 12
[3], 262 K, Crystal	–	241 ± 12
[3], 272 K, Crystal	–	251.1 ± 13
[3], 280 K, Liquid	–	364.8 ± 18
[3], 282 K, Crystal	–	261.2 ± 13
[3], 290 K, Liquid	–	370.5 ± 18
[3], 292 K, Crystal	–	271.2 ± 14
[3], 300 K, Liquid	–	376.3 ± 19
[3], 302 K, Crystal	–	281.3 ± 14
[3], 310 K, Liquid	–	382.1 ± 19
[3], 312 K, Crystal	–	291.4 ± 15
[3], 318 K, Crystal	–	299.5 ± 15
[3], 320 K, Liquid	–	387.8 ± 19
[3], 322 K, Crystal	–	301.5 ± 15
[3], 323 K, Crystal	–	304.2 ± 15
[3], 328 K, Crystal	–	308.9 ± 15
[3], 330 K, Crystal	–	309.5 ± 16
[3], 330 K, Liquid	–	393.6 ± 20
[3], 333 K, Crystal	–	313.5 ± 16
[3], 338 K, Crystal	–	318.2 ± 16
[3], 340 K, Liquid	–	399.3 ± 20
[3], 343 K, Crystal	–	322.9 ± 16
[3], 348 K, Crystal	–	327.5 ± 16
[3], 350 K, Liquid	–	405.1 ± 20
[3], 360 K, Liquid	–	410.9 ± 20
[3], 370 K, Liquid	–	416.6 ± 21
[3], 378 K, Liquid	–	421.2 ± 21

Settings	Glass transition temperature [°C]	Molar enthalpy of transition or fusion [kcal/mol]
[1]	-17 ± 1	–
[2]	–	5.69 ± 0.141

c1ccc(-c2ccccc2-c2ccccc2)cc1 [o-terphenyl]
Settings	Glass transition temperature [°C]
[1]	-3 ± 1

[3]
Settings	molar heat capacity at constant pressure [J/K/mol]
212 K, Glass	181.5 ± 9.1
217 K, Glass	187.8 ± 9.4
222 K, Glass	194 ± 9.7
227 K, Glass	200.3 ± 10
232 K, Glass	206.5 ± 10
237 K, Glass	212.8 ± 11
242 K, Glass	219 ± 11
280 K, Liquid	356.2 ± 18
290 K, Liquid	363.1 ± 18
300 K, Liquid	370 ± 18
310 K, Liquid	376.9 ± 19
320 K, Liquid	383.8 ± 19
330 K, Liquid	390.7 ± 20
340 K, Liquid	397.6 ± 20
350 K, Liquid	404.4 ± 20
